Measurements reported in patent US9662327B2 (AGIOS PHARMACEUTICALS, INC, priority 2011, dated 2017).
Like-named read-outs stand apart in the source and are kept apart here.

Target: IDH1 R132H (Homo sapiens (Human), UniProt O75874, R132H)
Assay: Assays for IDH1 R132H Inhibitors (NADPH/aKG, resazurin detection)
Assay type: biochemical
Settings: IDH1 R132H enzyme
Procedure, shortened: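 Mutant enzyme in 150 mM NaCl, 10 mM MgCl2, 20 mM Tris pH 7.5, 0.03% BSA; compound in DMSO added to substrate mix of 8 uM NADPH and 2 mM aKG. Reaction ran 50 min at room temperature, then resazurin detection mix (30 μM) added for 5 min at room temperature.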

[1] = Table 2, read-out: IDHR132H Activity

Chain of IDH1 R132H (O75874 whole entry R132H): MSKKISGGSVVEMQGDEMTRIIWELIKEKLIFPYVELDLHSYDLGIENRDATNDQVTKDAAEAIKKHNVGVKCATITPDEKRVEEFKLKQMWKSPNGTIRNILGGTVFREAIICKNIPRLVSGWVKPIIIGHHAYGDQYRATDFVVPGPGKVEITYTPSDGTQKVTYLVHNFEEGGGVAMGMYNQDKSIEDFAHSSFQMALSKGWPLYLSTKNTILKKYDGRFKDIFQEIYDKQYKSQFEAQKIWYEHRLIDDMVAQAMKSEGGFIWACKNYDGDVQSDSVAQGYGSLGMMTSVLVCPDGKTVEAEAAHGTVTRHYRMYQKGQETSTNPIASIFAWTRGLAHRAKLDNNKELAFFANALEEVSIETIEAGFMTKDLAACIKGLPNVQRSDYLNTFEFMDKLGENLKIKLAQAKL

Compound	IC50 [1] [µM]	IC50 (Table 3, read-out: R132H IC50) [µM]
CC(C)c1nc(N2CCN(C(=O)c3cocn3)[C@H](C(C)C)C2)c(C#N)c2c1COC(C)(C)C2 [Compound 212, (R)-8-isopropyl-6-(3-isopropyl-4-(oxazole-4-carbonyl)piperazin-1-yl)-3,3-dimethyl-3,4-dihydro-1H-pyrano[3,4-c]pyridine-5-carbonitrile]	0.5 to 1	–
Cc1cc(C(=O)N2CCN(c3nc(C4CC4)c4c(c3C#N)CC(C)(C)OC4)C[C@H]2C)c(C)o1 [Compound 244]	1 to 10	–
CC(C)c1nc(N2CCN(C(=O)c3ccco3)[C@H](C)C2)c(C#N)c2c1COCC2 [Compound 139, (R)-6-(4-(furan-2-carbonyl)-3-methylpiperazin-1-yl)-8-isopropyl-3,4-dihydro-1H-pyrano[3,4-c]pyridine-5-carbonitrile]	1 to 10	–
Cc1ccn(CC(=O)N2CCN(c3nc(C4CC4)c4c(c3C#N)CC(C)(C)OC4)C[C@H]2C(C)C)n1 [Compound 400, (R)-8-cyclopropyl-6-(3-isopropyl-4-(2-(3-methyl-1H-pyrazol-1-yl)acetyl)piperazin-1-yl)-3,3-dimethyl-3,4-dihydro-1H-pyrano[3,4-c]pyridine-5-carbonitrile]	1 to 10	–
C[C@@H]1CN(c2nc(C3CCCCC3)c3c(c2C#N)CCOC3)CCN1C(=O)c1nccn1C [Compound 262, (R)-8-cyclohexyl-6-(3-methyl-4-(1-methyl-1H-imidazole-2-carbonyl)piperazin-1-yl)-3,4-dihydro-1H-pyrano[3,4-c]pyridine-5-carbonitrile]	1 to 10	–
Cc1ccoc1C(=O)N1CCN(c2nc(C(C)C)c3c(c2C#N)CC(C)(C)OC3)C[C@H]1C [Compound 173, (R)-8-isopropyl-3,3-dimethyl-6-(3-methyl-4-(3-methylfuran-2-carbonyl)piperazin-1-yl)-3,4-dihydro-1H-pyrano[3,4-c]pyridine-5-carbonitrile]	1 to 10	–
CC(C)[C@@H]1CN(c2nc(C3CC3)c3c(c2C#N)CC(C)(C)OC3)CCN1C(=O)Cn1nccn1 [Compound 407, (R)-6-(4-(2-(2H-1,2,3-triazol-2-yl)acetyl)-3-isopropylpiperazin-1-yl)-8-cyclopropyl-3,3-dimethyl-3,4-dihydro-1H-pyrano[3,4-c]pyridine-5-carbonitrile]	0.5 to 1	–
COCCC(=O)N1CCN(c2nc(C3CC3)c3c(c2C#N)CC(C)(C)OC3)C[C@H]1C(C)C [Compound 270, (R)-8-cyclopropyl-6-(3-isopropyl-4-(3-methoxypropanoyl)piperazin-1-yl)-3,3-dimethyl-3,4-dihydro-1H-pyrano[3,4-c]pyridine-5-carbonitrile]	< 0.5	–
C[C@@H]1CN(c2nc(C3CCCCC3)c3c(c2C#N)CCOC3)CCN1C(=O)Nc1ccccc1F [Compound 300, (R)-4-(5-cyano-8-cyclohexyl-3,4-dihydro-1H-pyrano[3,4-c]pyridin-6-yl)-N-(2-fluorophenyl)-2-methylpiperazine-1-carboxamide]	1 to 10	–
CC(C)c1nc(N2CCN(C(=O)c3ccco3)[C@H](C(C)C)C2)c(C#N)c2c1COC(C)(C)C2 [Compound 171, (R)-6-(4-(furan-2-carbonyl)-3-isopropylpiperazin-1-yl)-8-isopropyl-3,3-dimethyl-3,4-dihydro-1H-pyrano[3,4-c]pyridine-5-carbonitrile]	< 0.5	–
CCC(=O)N1CCN(c2nc(C3CC3)c3c(c2C#N)CC(C)(C)OC3)C[C@H]1C(C)C [Compound 354, (R)-8-cyclopropyl-6-(3-isopropyl-4-propionylpiperazin-1-yl)-3,3-dimethyl-3,4-dihydro-1H-pyrano[3,4-c]pyridine-5-carbonitrile]	< 0.5	–
Cc1occc1C(=O)N1CCN(c2nc(C3CC3)c3c(c2C#N)CC(C)(C)OC3)CC1(C)C [Compound 321]	1 to 10	–
C[C@@H]1CN(c2nc(C3CCCCC3)c3c(c2C#N)CCOC3)CCN1C(=O)c1cnn2cccnc12 [Compound 261, (R)-8-cyclohexyl-6-(3-methyl-4-(pyrazolo[1,5-a]pyrimidine-3-carbonyl)piperazin-1-yl)-3,4-dihydro-1H-pyrano[3,4-c]pyridine-5-carbonitrile]	1 to 10	–
COCC(=O)N1CCN(c2nc(C3CC3)c3c(c2C#N)CC(C)(C)OC3)C[C@H]1C(C)C [Compound 347, (R)-8-cyclopropyl-6-(3-isopropyl-4-(2-methoxyacetyl)piperazin-1-yl)-3,3-dimethyl-3,4-dihydro-1H-pyrano[3,4-c]pyridine-5-carbonitrile]	< 0.5	–
C[C@@H]1CN(c2nc(C3CCCCC3)c3c(c2C#N)CC(C)(C)OC3)CCN1C(=O)c1ccoc1 [Compound 151, (R)-8-cyclohexyl-6-(4-(furan-3-carbonyl)-3-methylpiperazin-1-yl)-3,3-dimethyl-3,4-dihydro-1H-pyrano[3,4-c]pyridine-5-carbonitrile]	1 to 10	–
CC[C@@H]1CN(c2nc(C3CC3)c3c(c2C#N)CC(C)(C)OC3)CCN1C(=O)Cc1cccc(OC)c1 [Compound 296]	0.5 to 1	–
CCOC(=O)[C@@H]1CN(c2nc(C(C)C)c3c(c2C#N)CC(C)(C)OC3)CCN1C(=O)c1ccoc1 [Compound 411]	0.5 to 1	–
CC(C)c1nc(N2CCN(C(=O)c3ccoc3)CC2c2ccccc2)c(C#N)c2c1COC(C)(C)C2 (stereo not drawn) [Compound 178, 6-(4-(furan-3-carbonyl)-2-phenylpiperazin-1-yl)-8-isopropyl-3,3-dimethyl-3,4-dihydro-1H-pyrano[3,4-c]pyridine-5-carbonitrile]	1 to 10	–
CSCCC(=O)N1CCN(c2nc(C3CCCCC3)c3c(c2C#N)CCOC3)C[C@H]1C [Compound 264, (R)-8-cyclohexyl-6-(3-methyl-4-(3-(methylthio)propanoyl)piperazin-1-yl)-3,4-dihydro-1H-pyrano[3,4-c]pyridine-5-carbonitrile]	1 to 10	–
CC(C)c1nc(N2CCN(C(=O)NC3CCCCC3)CC2)c(C#N)c2c1COCC2 [Compound 107, 4-(5-cyano-8-isopropyl-3,4-dihydro-1H-pyrano[3,4-c]pyridin-6-yl)-N-cyclohexylpiperazine-1-carboxamide]	1 to 10	–
COCCC(=O)N1CCN(c2nc(C(C)C)c3c(c2C#N)CC(C)(C)OC3)C[C@H]1C [Compound 268, (R)-8-isopropyl-6-(4-(3-methoxypropanoyl)-3-methylpiperazin-1-yl)-3,3-dimethyl-3,4-dihydro-1H-pyrano[3,4-c]pyridine-5-carbonitrile]	0.5 to 1	–

Continued, values first:

IC50 [1] [µM]	IC50 (Table 3, read-out: R132H IC50) [µM]	Compound
1 to 10	–	COCC1CN(c2nc(C3CC3)c3c(c2C#N)CC(C)(C)OC3)CCN1C(=O)c1ccoc1 (stereo not drawn) [Compound 402, 8-cyclopropyl-6-(4-(furan-3-carbonyl)-3-(methoxymethyl)piperazin-1-yl)-3,3-dimethyl-3,4-dihydro-1H-pyrano[3,4-c]pyridine-5-carbonitrile]
1 to 10	–	COc1cccc(CC(=O)N2CCN(c3nc(C(C)C)c4c(c3C#N)CC(C)(C)OC4)C[C@H]2C)c1 [Compound 221, (R)-8-isopropyl-6-(4-(2-(3-methoxyphenyl)acetyl)-3-methylpiperazin-1-yl)-3,3-dimethyl-3,4-dihydro-1H-pyrano[3,4-c]pyridine-5-carbonitrile]
1 to 10	–	C[C@@H]1CN(c2nc(C3CCCCC3)c3c(c2C#N)CCOC3)CCN1C(=O)Cc1cccs1 [Compound 185, (R)-8-cyclohexyl-6-(3-methyl-4-(2-(thiophen-2-yl)acetyl)piperazin-1-yl)-3,4-dihydro-1H-pyrano[3,4-c]pyridine-5-carbonitrile]
1 to 10	–	C[C@H]1CN(C(=O)c2ccco2)CCN1c1nc(C2CCCCC2)c2c(c1C#N)CCOC2 [Compound 201, (S)-8-cyclohexyl-6-(4-(furan-2-carbonyl)-2-methylpiperazin-1-yl)-3,4-dihydro-1H-pyrano[3,4-c]pyridine-5-carbonitrile]
1 to 10	–	C[C@@H]1CN(c2nc(C3CCCCC3)c3c(c2C#N)CC(C)(C)OC3)CCN1C(=O)Cc1ccccc1 [Compound 152, (R)-8-cyclohexyl-3,3-dimethyl-6-(3-methyl-4-(2-phenylacetyl)piperazin-1-yl)-3,4-dihydro-1H-pyrano[3,4-c]pyridine-5-carbonitrile]
0.5 to 1	–	COC(=O)C1CN(c2nc(C3CC3)c3c(c2C#N)CC(C)(C)OC3)CCN1C(=O)c1ccoc1C (stereo not drawn) [Compound 394, methyl 4-(5-cyano-8-cyclopropyl-3,3-dimethyl-3,4-dihydro-1H-pyrano[3,4-c]pyridin-6-yl)-1-(2-methylfuran-3-carbonyl)piperazine-2-carboxylate]
1 to 10	–	C=CCNC(=O)N1CCN(c2nc(C(C)C)c3c(c2C#N)CC(C)(C)OC3)CC1C(=O)OCC (stereo not drawn) [Compound 331, ethyl 1-(allylcarbamoyl)-4-(5-cyano-8-isopropyl-3,3-dimethyl-3,4-dihydro-1H-pyrano[3,4-c]pyridin-6-yl)piperazine-2-carboxylate]
1 to 10	–	Cc1occc1C(=O)N1CCN(c2nc(C(C)C)c3c(c2C#N)CCOC3)C(c2ccccc2)C1 (stereo not drawn) [Compound 177, 8-isopropyl-6-(4-(2-methylfuran-3-carbonyl)-2-phenylpiperazin-1-yl)-3,4-dihydro-1H-pyrano[3,4-c]pyridine-5-carbonitrile]
–	0.5 to 1	CC1(C)Cc2c(C#N)c(N3CCN(C(=O)CC(F)(F)F)C(CC(F)(F)F)C3)nc(C3CC3)c2CO1 (stereo not drawn) [Compound 470, 8-cyclopropyl-3,3-dimethyl-6-(3-(2,2,2-trifluoroethyl)-4-(3,3,3-trifluoropropanoyl)piperazin-1-yl)-3,4-dihydro-1H-pyrano[3,4-c]pyridine-5-carbonitrile]
1 to 10	–	C[C@@H]1CN(c2nc(C3CCCCC3)c3c(c2C#N)CCOC3)C[C@H](C)N1C(=O)c1ccco1 [Compound 128, 8-cyclohexyl-6-((3S,5R)-4-(furan-2-carbonyl)-3,5-dimethylpiperazin-1-yl)-3,4-dihydro-1H-pyrano[3,4-c]pyridine-5-carbonitrile]
< 0.5	–	CCCC(=O)N1CCN(c2nc(C3CC3)c3c(c2C#N)CC(C)(C)OC3)C[C@H]1C(C)C [Compound 383]
1 to 10	–	COCC(=O)N1CCN(c2nc(C3CCCCC3)c3c(c2C#N)CCOC3)C[C@H]1C [Compound 341]
